# In patent US20260151363A1, “MELANOGENESIS INHIBITION COMPOSITIONS AND METHODS OF USE THEREOF” (MDI BIOLOGICAL LABORATORY, priority 2023, published 2026):
# Like-named read-outs stand apart in the source and are kept apart here.
# How the values were obtained:
# melanin production = assay: Melanin production and toxicity, ML233 analogs in parallel with ML233 (serial dilution); details: for toxicity: 25 μM
# Method: The ML233 analogs were tested in parallel with serial dilution in DMSO: at 25 μM, 12.5 μM, […], 3.12 5 μM, 1.5625 μM and […].
# mitfa and tyr genes = assay: In situ hybridization of mitfa and tyr in zebrafish embryos; type: in vivo; details: for tyr mRNA detection (in situ hybridization): embryos at 48 hpf, treated between 24 and 48 hpf
# Method: (§1) Example 10: Tyrosinase gene expression was not abolished by ML233 treatmentTo better understand the molecular action of ML233 on skin pigmentation and melanogenesis, the expression of genes involved in melanogenesis, including tyrosinase (tyr), dopachrome tautomerase (dct), and microphthalmia-associated transcription factor (mitfa), the latter which is known to control melanocyte formation and TYR expression, was analyzed.
# [1] = test system: ME2319B human melanoma line; assay: PDXO viability/proliferation, ME2319B; type: cell-based; details: ME2319B 3D organoids
# Method: (§2) Because ML233 affected B16F10 murine melanoma-cell proliferation, the proliferative potential of human metastatic melanoma was determined. Patient-derived xenograft organoids (PDXOs), which were 3D in vitro models generated from patient tumors, were used. The effect of ML233 treatment (between 0.001 μM and 10 μM) in two different human melanoma cell lines collected from metastasis, ME1154B and ME2319B (Crown Bioscience). These two melanoma lines differed in their sensitivity to both ML233 and the control molecule, staurosporine (STS), in 3D organoids (FIGS. 12A-12B).
# B16F10 (murine melanoma) = assay: Tyrosinase protein expression (Western blot) and pigmentation in B16F10 cells; type: cell-based; details: 5 μM
# Method: To study these two possibilities, an antibody raised against the human tyrosinase protein was used. The capacity of the antibody to recognize TYR in two different mammalian cell lines (FIG. 11A): B16F10 (murine melanoma) and A375 (human melanoma) was tested. Using the validated antibody, the level of tyrosinase protein expression by Western blot in control DMSO and 5 μM ML233 treated cells (FIG. 11B) was analyzed.
# [2] = test system: B16F10 murine melanoma cell line; assay: B16F10 melanoma cell proliferation / viability; type: cell-based; details: Mus musculus, B16-F10
# Method: ML233 reduced pigmentation in a mammalian melanoma cell line. In vivo, in vitro, and computational studies described here supported the hypothesis that ML233 was a direct inhibitor of TYR protein expression and function. The effects of ML233 and cisplatin on the proliferation of B16F-10 murine melanoma cells in vitro was analyzed. To determine the effects of conservation in higher vertebrate species, ML233 activity in the B16F10 murine melanoma cell line was tested. B16F10-cell proliferation was analyzed after ML233 treatment to determine IC50. A 50% reduction in cell viability at concentrations of ML233 between 5 and 10 μM was observed (FIG. 5A). Cells were treated with various concentration of ML233 or cisplatin and the cell viability of control percent versus the concentration of ML233 or cisplatin (in μM) was analyzed (FIGS. 5A and 5B).
# tyrosinase [3] = assay: In vitro tyrosinase activity (FIG. 3B); type: biochemical; details: compared to DMSO
# Source text: The effect of ML233 on tyrosinase activity was also explored in in vitro experiments.
# tyrosinase [4] = assay: Tyrosinase expression by Western blot and densitometry (FIG. 9); details: 15 μM
# Method: An analysis of tyrosinase expression after ML233 treatment was performed. […] Quantitative analysis was also performed using densitometry of tyrosinase expression after ML233 treatment at 15 μM of the Western blot data (FIG. 9B). DMSO was a negative control, while phenylthiourea (PTU), which is a potent inhibitor of human tyrosinase), was used as a positive control. CRISPR was used as a specificity control of the antibody used in the analysis, where CRISPR was directed against the tyrosinase gene.
# zebrafish embryos [5] = assay: Zebrafish embryo viability / toxicity; type: in vivo; details: 2.5, five
# Source text: Studies were undertaken to evaluate the effect of ML233 on embryo viability. […] The number of viable and dead embryos at 1 day post fertilization (dpf), 2 dpf, 3 dpf and 4 dpf and at various doses of ML233 was compared to embryo viability in negative controls, which included embryos treated with the carrier DMSO or untreated embryos. (FIG. 4A).
# zebrafish embryos [6] = assay: Pigmentation of zebrafish embryos (micrographs); type: in vivo
# Method: Zebrafish embryos were allowed to develop in the presence of ML233 and the effects of ML233 on pigmentation was analyzed. ML233 was dissolved in carrier Dimethylsulfoxide (DMSO). Embryos were exposed to ML233 beginning at four hours post-fertilization and ending at 48 hours post-fertilization. Dimethylsulfoxide (DMSO) was used as a negative control. ML233 dosages tested were 2.5 micromolar, five micromolar, and 10 micromolar (FIG. 1A).
# The effect of ML233 on pigmentation was analyzed in zebrafish embryos at 38 hours post-fertilization when larvae were highly pigmented. Embryos were treated with ML233 at the following concentrations: 5 micromolar, 10 micromolar, and 15 micromolar. The carrier, DMSO, was used as a negative control. Pigmentation was analyzed six hours (FIG. 2A) and 24 hours after ML233 addition (FIG. 2B).
# zebrafish embryos [7] = assay: Bulk RNAseq and GSEA in WT and aplnr KO zebrafish embryos; type: in vivo; details: 0.5 μM
# Source text: Because ML233 is an agonist of the apelin receptors, ML233 driven differential expression in an apelin dependent and independent manner was investigated. […] A clear separation in gene expression between the WT and KO backgrounds was observed (FIG. 10C).
# [8] = test system: B16F10 murine melanoma cells; assay: Melanin production in B16F10 cells (OD 410, IBMX-stimulated); type: cell-based
# Method: To determine if ML233 could inhibit pigmentation of […] cells at low ML233 concentrations (without effects on cell proliferation), melanin production was analyzed in B16F10 cells after 24 hours of treatment with 0.625 μM, 1.25 μM, 2.5 μM, or 5 μM of ML233. Observation of cell pellets after centrifugation confirmed that ML233 function to inhibit melanin production was conserved in mammals (data not shown). The effect of ML233 and 3-isobutyl-1-methylxanthine (IBMX) on melanin production was analyzed in B16F10 murine melanoma cells. IBMX is a non-selective phosphodiesterase inhibitor, which induced melanin production in B16F10 murine melanoma cells. Melanin production was measured in cells treated with IBMX alone (100 micromolar), and IBMX in conjunction with: 0.625 micromolar ML233, 1.25 micromolar ML233, 2.5 micromolar ML233, and five micromolar ML233, as well as in negative control cells treated with DMSO vehicle alone. Melanin production in treated cells was measured using optical density (FIG. 6A) at a wavelength of 410 nm (OD value 410). Ratios with the total quantity of protein (OD value 562) were calculated (FIG. 6B). […] P-values are indicated in the bar charts.
# mushroom TYR = assay: Mushroom TYR conversion of L-DOPA to melanin in vitro (FIG. 3C); type: biochemical; details: 20 μM; compared to DMSO
# Method: To determine whether ML233, a small inhibitor of melanogenesis, acts directly on tyrosinase (TYR) activity in vitro, the activity of mushroom TYR was assessed via measurement of its capacity to convert L-DOPA to melanin in vitro using Kojic Acid at 100 μM as a positive control.
# [9] = test system: tyr, dct, and mitfa mRNA expression; assay: RT-qPCR of tyr, dct and mitfa mRNA in zebrafish embryos; type: in vivo
# Method: as §1
# zebrafish embryos [10] = assay: Percent melanin quantity in zebrafish embryos; type: in vivo
# Method: The effect of ML233 on percent melanin quantity was assayed in zebrafish embryos beginning at 4 hours post-fertilization and ending at 48 hours. Developing embryos were treated with ML233 in DMSO carrier at varying dosages, or DMSO as a negative control or with phenylthiourea (PTU) as a positive control.
# tyrosinase [11] = assay: Tyrosinase activity in treated zebrafish embryos (absorbance of L-DOPA); type: in vivo
# Method: To determine the effect of ML233 on tyrosinase activity, zebrafish embryos were treated with ML233 at the following concentrations: 0.5 micromolar, 1.25 micromolar, 2.5 micromolar, five micromolar, 10 micromolar, and 15 micromolar ML233 (FIG. 3A). DMSO was used as a carrier and the tyrosinase inhibitor PTU was used as a positive control.
# [12] = test system: ME1154B human melanoma line; assay: cells; type: cell-based; details: ME1154B 3D organoids, read-out: IC50 viability/proliferation
# Method: as §2
# [13] = serial dilution 25 μM to 0.78125
compound,measurement,setting,value
"CC1=C/C(=N/OS(=O)(=O)c2ccccc2)C(C(C)C)=CC1=O [(i), [(Z)-(5-methyl-4-oxo-2-propan-2-ylcyclohexa-2,5-dien-1-ylidene)amino]benzenesulfonate]",toxicity,melanin production,higher toxicity
same,inhibition of melanin production,melanin production; [13],Inhibition of melanin production was also observed
"NC(=S)Nc1ccccc1 [PTU, phenylthiourea, reference compound]",tyr mRNA detection (in situ hybridization),mitfa and tyr genes,highly detectable
"CN[C@@H]1C[C@H]2O[C@@](C)([C@@H]1OC)n1c3ccccc3c3c4c(c5c6ccccc6n2c5c31)C(=O)NC4 [STS, staurosporine, reference compound]",IC50,[1]; Homo sapiens,0.0025 µM
"CC1=CC(=O)C(C(C)C)=C/C1=N\OS(=O)(=O)c1ccccc1 [(iii), [(E)-(2-methyl-4-oxo-5-propan-2-ylcyclohexa-2,5-dien-1-ylidene)amino]benzenesulfonate]",toxicity,melanin production,higher toxicity
same,inhibition of melanin production,melanin production; [13],Inhibition of melanin production was also observed
"CC1=CC(=O)C(C2CCCCC2)=C/C1=N\OS(=O)(=O)c1ccccc1 [ML233, (E)-2-cyclohexyl-5-methyl-4-(phenylsulfonyloxyimino)cyclohexa-2,5-dienone]",pigmentation of cells,B16F10 (murine melanoma),strong reduction in the pigmentation
same,TYR protein expression normalized with Beta-actin,B16F10 (murine melanoma); vs DMSO,no significant reduction of TYR protein expression
same,IC50,"[2]; B16F10, read-out: concentration giving 50% reduction in cell viability",5 to 10 µM
same,IC50,"[2]; B16F10 proliferation, read-out: in vitro IC50",10 µM
same,reduction of tyrosinase activity,tyrosinase [3]; 20 micromolar,greater than 40%
same,reduction of tyrosinase activity,tyrosinase [3]; 30 micromolar,50%
same,inhibition of melanin production,melanin production; 3.125 μM and lower concentrations,very efficient at inhibiting melanin production
same,tyrosinase expression (Western blot),tyrosinase [4],tyrosinase expression was inhibited
same,percent viability at day four post fertilization,zebrafish embryos [5]; 10 and 20 micromolar,No deleterious effects on zebrafish viability
same,toxicity (viable and dead embryos at 1 to 4 dpf),zebrafish embryos [5]; 10 and 20 micromolar from 4 hours post-fertilization,low toxicity at effective concentrations
same,pigmentation of embryos,"zebrafish embryos [6]; 2.5, five and 10 micromolar, exposure 4 to 48 hours post-fertilization, vs DMSO",visible decrease in pigmentation
same,pigmentation of embryos,"zebrafish embryos [6]; treated at 38 hours post-fertilization, 5, 10, 15 micromolar, six hours and 24 hours after addition",reduced pigmentation at all dosages
same,viability,[1]; between 0.001 μM and 10 μM,did not affect ME2319B viability at any concentration tested
same,impact on biological processes (GSEA),zebrafish embryos [7],did not significantly impact biological processes
same,mitfa and tyr gene expression in melanocytes (in situ hybridization),mitfa and tyr genes; 2 dpf after 1 day of 15 μM,still expressed in melanocytes
same,tyr mRNA detection (in situ hybridization),mitfa and tyr genes,highly detectable
same,melanogenesis (melanin OD 410; ratio to protein OD 562),"[8]; IBMX 100 micromolar plus 0.625, 1.25, 2.5 or five micromolar ML233",reduced melanogenesis in mammalian melanoma cells at all dosages
same,B16F10 cells survival,[8]; between 0.625 and 5 μM,without affecting B16F10 cells survival
same,melanoma-cell pigmentation (absorbance quantification of melanin),[8]; concentrations as low as 0.625 μM,significantly reduced
same,reduction of melanogenesis (L-DOPA to melanin),mushroom TYR,~40%
same,tyr expression by RT-qPCR,[9]; 5 μM and greater,Significantly decreased
same,maximum reduction of tyr expression,"[9]; 20 μM, compared to DMSO-treated embryos",~40%
same,mitfa expression by RT-qPCR,[9]; any concentration,not significantly dysregulated
same,"tyr, dct, and mitfa mRNA expression by RT-qPCR",[9]; embryos at 2 dpf after 1 day of treatment,mild reduction of gene expression
same,melanin production (percent melanin quantity),"zebrafish embryos [10]; 0.5 to 15 micromolar, 4 to 48 hours post-fertilization",significantly inhibited melanin production at all levels tested
same,melanin quantity compared with PTU,zebrafish embryos [10]; 5 micromolar and above,comparable to treatment with PTU
same,percent of tyrosinase activity compared with PTU,tyrosinase [11]; 10 micromolar and 15 micromolar ML233 groups,comparable to PTU
same,tyrosinase activity,tyrosinase [11]; concentration as low as 0.5 micromolar,significantly reduced
same,IC50,[12],1.65 µM
"[(E)-(5-methyl-4-oxo-2-propan-2-ylcyclohexa-2,5-dien-1-ylidene)amino]4-methylbenzenesulfonate [(ii)]",inhibition of melanin production,melanin production; [13],Inhibition of melanin production was also observed
